Results as given in US20260132132A1, “3A,4,5,6-TETRAHYDRO-1 H-PYRAZOLO[3,4-C]PYRIDIN-7(7AH)-ONE DERIVATIVES AS FACTOR XIIA INHIBITORS” (KALVISTA PHARMACEUTICALS LIMITED, priority 2022, published 2026).

Target: T1, Human Factor XIIa (hFXIIa) (Homo sapiens, UniProt P00748)
T1 construct: purchased Enzyme Research Laboratories
T1 sequence (P00748 373-615 limits assumed): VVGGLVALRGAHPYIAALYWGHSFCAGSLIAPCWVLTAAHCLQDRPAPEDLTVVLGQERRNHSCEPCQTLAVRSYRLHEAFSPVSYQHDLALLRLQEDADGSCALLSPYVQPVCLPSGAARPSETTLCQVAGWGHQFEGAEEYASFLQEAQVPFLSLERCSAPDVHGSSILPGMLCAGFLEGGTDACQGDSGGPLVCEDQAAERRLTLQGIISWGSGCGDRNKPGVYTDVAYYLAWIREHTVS
T1 sequence (P00748 20-372 partner limits assumed): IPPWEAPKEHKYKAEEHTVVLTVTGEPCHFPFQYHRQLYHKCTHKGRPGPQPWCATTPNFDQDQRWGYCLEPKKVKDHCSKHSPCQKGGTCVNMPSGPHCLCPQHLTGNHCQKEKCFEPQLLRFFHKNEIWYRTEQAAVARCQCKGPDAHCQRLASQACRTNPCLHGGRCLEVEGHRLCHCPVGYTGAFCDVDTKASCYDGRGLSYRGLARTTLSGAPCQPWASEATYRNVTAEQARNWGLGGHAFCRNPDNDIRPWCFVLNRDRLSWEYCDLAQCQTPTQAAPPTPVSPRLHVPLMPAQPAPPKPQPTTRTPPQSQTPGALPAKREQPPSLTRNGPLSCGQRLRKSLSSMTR
Assay: Determination of Human Factor XIIa (hFXIIa) inhibition, fluorogenic substrate IC50 assay
Assay type: biochemical
Details: fluorogenic substrate H-DPro-Phe-Arg-AFC at Km, 25° C., read-out: Human FXIIa IC50
Method: Determination of Human Factor XIIa (hFXIIa) inhibition
The Km for the cleavage of the substrate by hFXIIa was determined by standard transformation of the Michaelis-Menten equation, with subsequent inhibition assays performed at substrate Km concentration.

| IC50 | Structure (SMILES) |
| --- | --- |
| 100 to 300 nM | Cn1nccc1CNC(=O)c1nn(-c2cccc(Cl)c2)c2c1CCN(c1ccc3c(c1)CN(CCO)CC3)C2=O [Example 1088, 1-(3-chlorophenyl)-6-(2-(2-hydroxyethyl)-1,2,3,4-tetrahydroisoquinolin-7-yl)-N-((1-methyl-1H-pyrazol-5-yl)methyl)-7-oxo-4,5,6,7-tetrahydro-1H-pyrazolo[3,4-c]pyridine-3-carboxamide] |
| 100 to 300 nM | CCN1CCc2ccc(N3CCc4c(C(=O)NC5C6COCC65)nn(-c5cccc(Cl)c5)c4C3=O)cc2C1 (stereo not shown) [Example 1093, N-(3-oxabicyclo[3.1.0]hexan-6-yl)-1-(3-chlorophenyl)-6-(2-ethyl-1,2,3,4-tetrahydroisoquinolin-7-yl)-7-oxo-4,5,6,7-tetrahydro-1H-pyrazolo[3,4-c]pyridine-3-carboxamide] |
| 300 to 1000 nM | CC(C)(O)CN1CCc2ccc(N3CCc4c(C(=O)NCC5CC5)nn(-c5cccc(Cl)c5)c4C3=O)cc2C1 [Example 1096, 1-(3-chlorophenyl)-N-(cyclopropylmethyl)-6-(2-(2-hydroxy-2-methylpropyl)-1,2,3,4-tetrahydroisoquinolin-7-yl)-7-oxo-4,5,6,7-tetrahydro-1H-pyrazolo[3,4-c]pyridine-3-carboxamide] |
| 1000 to 3000 nM | O=C(NCC1CC1)c1nn(-c2cccc(Cl)c2)c2c1CCN(c1ccc3c(c1)CN(CC1CC1(F)F)CC3)C2=O (stereo not shown) [Example 1097, 1-(3-chlorophenyl)-N-(cyclopropylmethyl)-6-(2-((2,2-difluorocyclopropyl)methyl)-1,2,3,4-tetrahydroisoquinolin-7-yl)-7-oxo-4,5,6,7-tetrahydro-1H-pyrazolo[3,4-c]pyridine-3-carboxamide] |
| 1000 to 3000 nM | N#CCN1CCc2ccc(N3CCc4c(C(=O)NCC5CC5)nn(-c5cccc(Cl)c5)c4C3=O)cc2C1 [Example 1100, 1-(3-chlorophenyl)-6-(2-(cyanomethyl)-1,2,3,4-tetrahydroisoquinolin-7-yl)-N-(cyclopropylmethyl)-7-oxo-4,5,6,7-tetrahydro-1H-pyrazolo[3,4-c]pyridine-3-carboxamide] |

The next lines start with the molecule.

| Structure (SMILES) | IC50 |
| --- | --- |
| CCN1CCc2ccc(N3CCc4c(C(=O)N[C@H]5CCOC5)nn(-c5cccc(Cl)c5)c4C3=O)cc2C1 [Example 1090, (S)-1-(3-chlorophenyl)-6-(2-ethyl-1,2,3,4-tetrahydroisoquinolin-7-yl)-7-oxo-N-(tetrahydrofuran-3-yl)-4,5,6,7-tetrahydro-1H-pyrazolo[3,4-c]pyridine-3-carboxamide] | 100 to 300 nM |
| CCN1CCc2ccc(N3CCc4c(C(=O)N[C@@H]5CCOC5)nn(-c5cccc(Cl)c5)c4C3=O)cc2C1 [Example 1091, (R)-1-(3-chlorophenyl)-6-(2-ethyl-1,2,3,4-tetrahydroisoquinolin-7-yl)-7-oxo-N-(tetrahydrofuran-3-yl)-4,5,6,7-tetrahydro-1H-pyrazolo[3,4-c]pyridine-3-carboxamide] | 100 to 300 nM |
| COC(=O)CN1CCc2ccc(N3CCc4c(C(=O)NCC5CC5)nn(-c5cccc(Cl)c5)c4C3=O)cc2C1 [Example 1094, methyl 2-(7-(1-(3-chlorophenyl)-3-((cyclopropylmethyl)carbamoyl)-7-oxo-1,4,5,7-tetrahydro-6H-pyrazolo[3,4-c]pyridin-6-yl)-3,4-dihydroisoquinolin-2(1H)-yl)acetate] | 1000 to 3000 nM |
| O=C(O)CN1CCc2ccc(N3CCc4c(C(=O)NCC5CC5)nn(-c5cccc(Cl)c5)c4C3=O)cc2C1 [Example 1095, 2-(7-(1-(3-chlorophenyl)-3-((cyclopropylmethyl)carbamoyl)-7-oxo-1,4,5,7-tetrahydro-6H-pyrazolo[3,4-c]pyridin-6-yl)-3,4-dihydroisoquinolin-2(1H)-yl)acetic acid] | 1000 to 3000 nM |
| NCCN1CCc2ccc(N3CCc4c(C(=O)NCC5CC5)nn(-c5cccc(Cl)c5)c4C3=O)cc2C1 [Example 1098, 6-(2-(2-aminoethyl)-1,2,3,4-tetrahydroisoquinolin-7-yl)-1-(3-chlorophenyl)-N-(cyclopropylmethyl)-7-oxo-4,5,6,7-tetrahydro-1H-pyrazolo[3,4-c]pyridine-3-carboxamide] | 100 to 300 nM |
